Source: patent US20070066566A1, “19,23,24,25,26,27-Hexanor-1alpha-hydroxyvitamin D3” (Wisconsin Alumni Research Foundation, priority 2005, published 2007)

How the values were obtained:
[1] = molecular target: T1, full-length recombinant rat vitamin D receptor (Rattus norvegicus, UniProt P13053); experiment: Vitamin D receptor binding, competition with [3H]-1,25-(OH)2-D3; conditions: FIG. 1
T1 construct: Full-length recombinant rat receptor was expressed in E. coli BL21(DE3) Codon Plus RIL cells; His tag (C); made in house; host or cells: E. coli BL21(DE3) Codon Plus RIL
T1 sequence (P13053 1-423): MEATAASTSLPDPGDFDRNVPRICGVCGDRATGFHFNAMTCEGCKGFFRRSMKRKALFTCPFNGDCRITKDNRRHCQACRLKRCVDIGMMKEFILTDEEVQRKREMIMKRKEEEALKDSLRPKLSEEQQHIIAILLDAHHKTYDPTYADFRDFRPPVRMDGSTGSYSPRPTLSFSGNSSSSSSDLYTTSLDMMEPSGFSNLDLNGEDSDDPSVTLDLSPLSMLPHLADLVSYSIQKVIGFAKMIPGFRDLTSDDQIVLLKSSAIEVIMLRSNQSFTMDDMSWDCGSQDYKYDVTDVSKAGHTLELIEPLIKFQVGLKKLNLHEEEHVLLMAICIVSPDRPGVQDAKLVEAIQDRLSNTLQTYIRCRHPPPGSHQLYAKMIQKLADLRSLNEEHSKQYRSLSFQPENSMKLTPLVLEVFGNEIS
Text: FIG. 1 is a graph comparing the relative activity of NP9 and 1,25(OH)2D3 to compete for binding with [^3H]-1,25-(OH)2-D3 to the full-length recombinant rat vitamin D receptor.
Full-length recombinant rat receptor was expressed in E. coli BL21(DE3) Codon Plus RIL cells and purified to homogeneity using two different column chromatography systems. The first system was a nickel affinity resin that utilizes the C-terminal histidine tag on this protein. The protein that eluted from this resin was further purified using ion exchange chromatography (S-Sepharose Fast Flow). Aliquots of the purified protein were quick frozen in liquid nitrogen and stored at −80° C. until use. For use in binding assays, the protein was diluted in TEDK50 (50 mM Tris, 1.5 mM EDTA, pH 7.4, 5 mM DTT, 150 mM KCl) with 0.1% Chaps detergent. […]
Unlabeled ligands were dissolved in ethanol and the concentrations were determined using UV spectrophotometry (1,25(OH)2D3: molar extinction coefficient=18,200 and λmax=265 nm). […]
Radiolabeled and unlabeled ligands were added to 100 mcl of the diluted protein at a final ethanol concentration of ≧10%, mixed and incubated overnight on ice to reach binding equilibrium. […] Total binding was determined from the tubes containing only radiolabeled ligand.

[2] = test system: Human promyelocytic leukemia (HL60) cells; experiment: HL-60 differentiation (nitro blue tetrazolium reduction); format: cell-based; conditions: FIG. 2
Protocol: FIG. 2 is a graph comparing the percent HL-60 cell differentiation as a function of the concentration of NP9 with that of 1,25(OH)2D3.
The study drugs were dissolved in ethanol and the concentrations determined using UV spectrophotometry. Serial dilutions were prepared so that a range of drug concentrations was tested without changing the final concentration of ethanol (≦0.2%) present in the cell cultures.
Human promyelocytic leukemia (HL60) cells were grown in RPMI-1640 medium containing 10% fetal bovine serum. The cells were incubated at 37° C. in the presence of 5% CO2.
HL60 cells were plated at 1.2×10^5 cells/mL. Eighteen hours after plating, cells in duplicate were treated with drug. Four days later, the cells were harvested and a nitro blue tetrazolium reduction assay was performed (Collins et al., 1979; J. Exp. Med. 149:969-974). The percentage of differentiated cells was determined by counting a total of 200 cells and recording the number that contain intracellular black-blue formazan deposits. Verification of differentiation to monocytic cells was determined by measuring phagocytic activity.

[3] = test system: 24-hydroxylase (24Ohase) gene promoter; experiment: In vitro transcription assay (luciferase reporter in ROS 17/2.8 cells); format: cell-based; conditions: 24Ohase promoter-luciferase, FIG. 3
Protocol: FIG. 3 is a graph comparing the in vitro transcription activity of NP9 with that of 1,25(OH)2D3.
Transcription activity was measured in ROS 17/2.8 (bone) cells that were stably transfected with a 24-hydroxylase (24Ohase) gene promoter upstream of a luciferase reporter gene (Arbour et al., 1998). Cells were given a range of doses. Sixteen hours after dosing the cells were harvested and luciferase activities were measured using a luminometer. RLU=relative luciferase units.
Antagonism was tested by adding a combination of 1,25(OH)2D3 and the compound in the same well keeping the final ethanol concentration the same.

[4] = test system: Sprague-Dawley rats; experiment: Bone calcium mobilization (serum calcium); format: in vivo, rat; conditions: four consecutive ip doses, FIG. 4B
Text: (§1) FIGS. 4A and 4B are graphs comparing intestinal calcium transport (4A) and bone calcium mobilization (4B) of NP9 and 1,25(OH)2D3.
(§2) Male, weanling Sprague-Dawley rats were placed on Diet 11 (Suda et al. J. Nutr. 100:1049, 1970) (0.47% Ca) diet+vitamins AEK for one week followed by Diet 11 (0.02% Ca)+AEK for 3 weeks. The rats were then switched to a diet containing 0.47% Ca for one week followed by two weeks on a diet containing 0.02% Ca. Dose administration began during the last week on 0.02% calcium diet. Four consecutive ip doses were given approximately 24 hours apart. Twenty-four hours after the last dose, blood was collected from the severed neck and the concentration of serum calcium was determined as a measure of bone calcium mobilization. The first 10 cm of the intestine was also collected for intestinal calcium transport analysis using the everted gut sac method. Antagonism was tested by administering a combination of 1,25(OH)2D3 and the compound to the animal simultaneously.

[5] = test system: Sprague-Dawley rats; experiment: Intestinal calcium transport (everted gut sac method); format: in vivo, rat; conditions: four consecutive ip doses, FIG. 4A
Text: as §1, §2

Compound: CC(C)[C@H]1CC[C@H]2/C(=C/C=C3C[C@@H](O)C[C@H](O)C3)CCC[C@]12C [formula 1B, 19,23,24,25,26,27-Hexanor-1α-hydroxyvitamin D3]
- binding to the vitamin D receptor relative to 1,25-(OH)2D3 [1]: does not bind to the vitamin D receptor as strongly as the native hormone 1,25-(OH)2D3
- activity in inducing differentiation of HL-60 cells compared to 1,25-(OH)2D3 [2]: less but still significant activity compared to 1,25-(OH)2D3
- activity in causing transcription compared to 1,25-(OH)2D3 [3]: does not show as much activity in causing transcription as 1,25-(OH)2D3
- bone calcium mobilizing activity [4]: no measurable bone calcium mobilizing activity
- intestinal calcium transport activity [5]: no measurable
